Drawing on patent US20080234262A1 (Wyeth, priority 2007, published 2008), this text covers IC50 for 9 compounds.

The subject of one assay is breast line MDA468. The assay can be described thus: In vitro cell culture growth assay (MTS), MDA468. The class given is cell-based, human. The settings on record: Homo sapiens, 72 h, MDA468 cells, three days after drug treatment. The method in brief:
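MDA468 or LNCap cells received inhibitors one day after plating and were grown for three days. Viable cell density read by MTS conversion, absorbance 490 nm, expressed as percent of control growth versus vehicle-treated cells on the same plate.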

The target in a further assay is PI3K (Homo sapiens, UniProt P42336). The assay can be described thus: Fluorescence polarization assay for PI3K.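 Further: PI3K kinase reaction on PIP2 with ATP, 30-60 min, product sensed by GST-GRP with red probe in fluorescence polarization (mP), controls without enzyme and at zero time.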 To be noted: PI3Kα; read-out: PI3Kα IC50. The class given is biochemical.
The next assay relates to prostate line LNCap. The assay can be described thus: In vitro cell culture growth assay (MTS), LNCap. The format is cell-based, human. To be noted: Homo sapiens, LNCaP, 72 h, LNCap cells, three days after drug treatment.

What is called IC50 is the concentration that inhibits the measured activity by half.

Chain of PI3K (P42336 whole entry): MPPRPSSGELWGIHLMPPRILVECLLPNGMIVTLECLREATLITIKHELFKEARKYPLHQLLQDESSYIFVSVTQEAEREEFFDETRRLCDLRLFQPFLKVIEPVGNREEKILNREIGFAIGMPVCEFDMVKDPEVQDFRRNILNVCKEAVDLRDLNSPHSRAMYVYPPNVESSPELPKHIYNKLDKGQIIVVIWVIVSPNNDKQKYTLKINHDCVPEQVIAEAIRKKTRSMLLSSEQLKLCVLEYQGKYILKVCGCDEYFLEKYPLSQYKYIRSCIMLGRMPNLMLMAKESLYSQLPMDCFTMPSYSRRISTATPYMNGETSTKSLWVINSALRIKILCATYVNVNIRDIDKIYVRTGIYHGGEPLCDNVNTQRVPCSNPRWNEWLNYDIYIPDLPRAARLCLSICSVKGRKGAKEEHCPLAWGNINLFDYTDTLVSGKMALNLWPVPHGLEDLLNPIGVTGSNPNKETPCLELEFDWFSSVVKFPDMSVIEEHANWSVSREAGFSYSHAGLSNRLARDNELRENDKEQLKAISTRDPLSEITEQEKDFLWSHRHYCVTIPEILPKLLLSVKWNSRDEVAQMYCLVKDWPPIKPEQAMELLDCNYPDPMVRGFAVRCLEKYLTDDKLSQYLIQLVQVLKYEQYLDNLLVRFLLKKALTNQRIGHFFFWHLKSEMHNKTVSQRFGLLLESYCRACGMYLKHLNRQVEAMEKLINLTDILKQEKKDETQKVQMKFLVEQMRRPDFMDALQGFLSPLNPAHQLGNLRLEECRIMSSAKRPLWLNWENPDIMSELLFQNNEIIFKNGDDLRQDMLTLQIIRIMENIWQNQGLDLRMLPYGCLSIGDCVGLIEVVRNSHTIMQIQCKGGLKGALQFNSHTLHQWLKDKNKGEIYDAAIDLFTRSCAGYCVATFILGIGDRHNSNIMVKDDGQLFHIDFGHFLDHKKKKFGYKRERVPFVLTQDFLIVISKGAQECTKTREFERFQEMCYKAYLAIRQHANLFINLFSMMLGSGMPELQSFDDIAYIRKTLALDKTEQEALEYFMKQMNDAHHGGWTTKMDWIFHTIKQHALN
Chain of PI3K (P27986 whole entry partner): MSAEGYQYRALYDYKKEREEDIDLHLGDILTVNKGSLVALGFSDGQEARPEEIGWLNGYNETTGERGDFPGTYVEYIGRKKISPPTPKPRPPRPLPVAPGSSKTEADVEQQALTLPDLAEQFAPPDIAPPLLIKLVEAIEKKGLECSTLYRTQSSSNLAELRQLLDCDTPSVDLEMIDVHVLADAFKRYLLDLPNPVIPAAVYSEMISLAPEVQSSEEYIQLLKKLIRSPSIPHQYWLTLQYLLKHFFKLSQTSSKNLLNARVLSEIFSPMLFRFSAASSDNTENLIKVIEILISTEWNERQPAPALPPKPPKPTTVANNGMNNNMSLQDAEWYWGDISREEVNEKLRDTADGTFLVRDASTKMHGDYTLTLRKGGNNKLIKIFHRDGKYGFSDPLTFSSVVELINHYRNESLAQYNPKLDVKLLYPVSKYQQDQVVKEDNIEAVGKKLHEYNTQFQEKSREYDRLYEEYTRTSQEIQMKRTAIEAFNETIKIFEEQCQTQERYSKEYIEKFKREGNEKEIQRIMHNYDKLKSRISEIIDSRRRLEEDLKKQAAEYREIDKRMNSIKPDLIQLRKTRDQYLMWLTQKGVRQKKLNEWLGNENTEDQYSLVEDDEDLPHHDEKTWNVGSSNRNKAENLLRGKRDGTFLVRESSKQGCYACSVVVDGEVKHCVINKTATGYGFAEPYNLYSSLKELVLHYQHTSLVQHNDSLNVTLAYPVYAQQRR

Take `CNC(=O)Nc1ccc(-c2nc(N3CCOCC3)c3cnn(C4CCN(C(=O)c5ccc(OC)cc5)CC4)c3n2)cc1` [Compound 609, 1-(4-{1-[1-(4-methoxybenzoyl)piperidin-4-yl]-4-morpholin-4-yl-1H-pyrazolo[3,4-d]pyrimidin-6-yl}phenyl)-3-methylurea]: the figures for the IC50 in the assay with breast line MDA468, at PI3K and with prostate line LNCap were 350 nM, 54 nM and 45 nM, respectively.
In the same order, the values of `CNC(=O)Nc1ccc(-c2nc(N3CCOCC3)c3cnn(C4CCN(C(=O)c5cccc(OC)c5)CC4)c3n2)cc1` [Compound 610, 1-(4-{1-[1-(3-methoxybenzoyl)piperidin-4-yl]-4-morpholin-4-yl-1H-pyrazolo[3,4-d]pyrimidin-6-yl}phenyl)-3-methylurea] are 340 nM, 75 nM and 35 nM.
Turning to `CNC(=O)Nc1ccc(-c2nc(N3CCOCC3)c3cnn(C4CCN(C(=O)c5ccccc5OC)CC4)c3n2)cc1` [Compound 611, 1-(4-{1-[1-(2-methoxybenzoyl)piperidin-4-yl]-4-morpholin-4-yl-1H-pyrazolo[3,4-d]pyrimidin-6-yl}phenyl)-3-methylurea], the values for the IC50 with breast line MDA468, on PI3K and with prostate line LNCap were 330 nM, 82 nM and less than 27 nM, respectively.
In the same order, the values of `CNC(=O)Nc1ccc(-c2nc(N3CCOCC3)c3cnn(C4CCN(C(=O)c5cccc(C)c5)CC4)c3n2)cc1` [Compound 612, 1-methyl-3-(4-{1-[1-(3-methylbenzoyl)piperidin-4-yl]-4-morpholin-4-yl-1H-pyrazolo[3,4-d]pyrimidin-6-yl}phenyl)urea] are 27 nM, 72 nM and less than 27 nM.
In the same order, the values of `CNC(=O)Nc1ccc(-c2nc(N3CCOCC3)c3cnn(C4CCN(C(=O)c5ccc(C)cc5)CC4)c3n2)cc1` [Compound 613, 1-methyl-3-(4-{1-[1-(4-methylbenzoyl)piperidin-4-yl]-4-morpholin-4-yl-1H-pyrazolo[3,4-d]pyrimidin-6-yl}phenyl)urea] are 85 nM, 42 nM and less than 27 nM.
Taken in the same sequence, the figures for `CNC(=O)Nc1ccc(-c2nc(N3CCOCC3)c3cnn(C4CCN(C(=O)c5ccc(C#N)cc5)CC4)c3n2)cc1` [Compound 614, 1-(4-{1-[1-(4-cyanobenzoyl)piperidin-4-yl]-4-morpholin-4-yl-1H-pyrazolo[3,4-d]pyrimidin-6-yl}phenyl)-3-methylurea] were 220 nM, 89 nM and 150 nM.
As for `O=C(Nc1cccnc1)Nc1ccc(-c2nc(N3CCOCC3)c3cnn(C4CCN(Cc5cccnc5)CC4)c3n2)cc1F` [Compound 618, 1-(2-fluoro-4-{4-morpholin-4-yl-1-[1-(pyridin-3-ylmethyl)piperidin-4-yl]-1H-pyrazolo[3,4-d]pyrimidin-6-yl}phenyl)-3-pyridin-3-ylurea], the IC50 with breast line MDA468 was determined as 150 nM; on PI3K it was 54 nM; in the assay on prostate line LNCap it was 40 nM.
Consider `O=C(NCCF)Nc1ccc(-c2nc(N3CCOCC3)c3cnn(C4CCN(Cc5cccnc5)CC4)c3n2)cc1F` [Compound 619, 1-(2-fluoroethyl)-3-(2-fluoro-4-{4-morpholin-4-yl-1-[1-(pyridin-3-ylmethyl)piperidin-4-yl]-1H-pyrazolo[3,4-d]pyrimidin-6-yl}phenyl)urea], for which the half-inhibitory concentration (IC50) was 1300 nM with breast line MDA468, 619 nM at PI3K and 140 nM with prostate line LNCap.
Turning to `O=C(Nc1ccc(-c2nc(N3CCOCC3)c3cnn(C4CCN(Cc5cccnc5)CC4)c3n2)cc1)Nc1ccsc1` [Compound 620, 1-(4-{4-morpholin-4-yl-1-[1-(pyridin-3-ylmethyl)piperidin-4-yl]-1H-pyrazolo[3,4-d]pyrimidin-6-yl}phenyl)-3-(3-thienyl)urea], the figures for the IC50 in the assay on breast line MDA468, on PI3K and in the assay on prostate line LNCap were 130 nM, 10 nM and 34 nM, respectively.
